Source: patent US10344017B2, “Pyrrolcarboxamide derivatives for the inhibition of ERK5” (CANCER RESEARCH TECHNOLOGY LIMITED, priority 2014, dated 2019)

Molecular target: T1, ERK5 (Homo sapiens, UniProt Q13164)
T1 construct: made in house
Experiment: ERK5 IMAP assay (fluorescence polarisation)
Type: biochemical
Details: average (e.g. geometric mean) where more than one data point; read-out: ERK5 IC50

T1 sequence (Q13164 whole entry): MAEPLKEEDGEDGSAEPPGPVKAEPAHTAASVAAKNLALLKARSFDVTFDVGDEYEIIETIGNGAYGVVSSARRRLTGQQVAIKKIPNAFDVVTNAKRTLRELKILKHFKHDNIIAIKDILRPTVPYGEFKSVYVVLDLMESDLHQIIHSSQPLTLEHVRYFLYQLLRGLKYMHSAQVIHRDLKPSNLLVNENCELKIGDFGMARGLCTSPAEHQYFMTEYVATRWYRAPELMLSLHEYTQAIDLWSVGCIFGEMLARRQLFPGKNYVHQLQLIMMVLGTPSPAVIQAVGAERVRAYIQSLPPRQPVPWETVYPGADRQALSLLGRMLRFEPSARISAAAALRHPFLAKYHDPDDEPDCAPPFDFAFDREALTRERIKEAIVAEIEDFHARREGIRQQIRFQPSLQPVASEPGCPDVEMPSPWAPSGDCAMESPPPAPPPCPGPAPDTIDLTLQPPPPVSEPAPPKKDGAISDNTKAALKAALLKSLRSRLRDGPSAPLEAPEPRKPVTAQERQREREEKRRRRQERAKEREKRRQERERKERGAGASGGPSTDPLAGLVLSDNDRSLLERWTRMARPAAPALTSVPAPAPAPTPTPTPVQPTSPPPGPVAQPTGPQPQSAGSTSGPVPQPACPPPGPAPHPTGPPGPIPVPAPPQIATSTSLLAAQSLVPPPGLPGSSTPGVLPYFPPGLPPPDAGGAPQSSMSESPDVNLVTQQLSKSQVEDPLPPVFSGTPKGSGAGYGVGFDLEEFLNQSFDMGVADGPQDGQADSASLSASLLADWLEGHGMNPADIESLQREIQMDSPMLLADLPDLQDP

C#Cc1cccc(F)c1C(=O)c1c[nH]c(C(=O)NC2CCN(C)CC2)c1 [Example 205, 4-(2-Ethynyl-6-fluorobenzoyl)-N-(1-methylpiperidin-4-yl)-1H-pyrrole-2-carboxamide]
IC50: 2840 nM

O=C(Nc1cccnc1)c1cc(C(=O)c2c(F)ccc(F)c2F)c[nH]1 [Example 206, N-(Pyridin-3-yl)-4-(2,3,6-trifluorobenzoyl)-1H-pyrrole-2-carboxamide]
IC50: 400 nM

O=C(Nc1cncnc1)c1cc(C(=O)c2c(F)ccc(F)c2F)c[nH]1 [Example 207, N-(Pyrimidin-5-yl)-4-(2,3,6-trifluorobenzoyl)-1H-pyrrole-2-carboxamide]
IC50: 1070 nM

O=C(NC1CCNCC1)c1cc(C(=O)c2c(F)ccc(F)c2F)c[nH]1 [Example 208, N-(Piperidin-4-yl)-4-(2,3,6-trifluorobenzoyl)-1H-pyrrole-2-carboxamide]
IC50: 611 nM

CN1CCC(NC(=O)c2cc(C(=O)c3c(F)ccc(F)c3F)c[nH]2)CC1 [Example 209, N-(1-Methylpipendin-4-yl)-4-(2,3,6-trifluorobenzoyl)-1H-pyrrole-2-carboxamide]
IC50: 569 nM

O=C(Nc1cccnc1)c1cc(C(=O)c2c(F)ccc(Cl)c2F)c[nH]1 [Example 210, 4-(3-Chloro-2,6-difluorobenzoyl)-N-(pyridin-3-yl)-1H-pyrrole-2-carboxamide]
IC50: 291 nM

O=C(Nc1cncnc1)c1cc(C(=O)c2c(F)ccc(Cl)c2F)c[nH]1 [Example 211, 4-(3-Chloro-2,6-difluorobenzoyl)-N-(pyrimidin-5-yl)-1H-pyrrole-2-carboxamide]
IC50: 226 nM

O=C(NC1CCNCC1)c1cc(C(=O)c2c(F)ccc(Cl)c2F)c[nH]1 [Example 212, 4-(3-Chloro-2,6-difluorobenzoyl)-N-(piperidin-4-yl)-1H-pyrrole-2-carboxamide]
IC50: 292 nM

O=C(Nc1cccnc1)c1cc(C(=O)c2c(F)ccc(F)c2Cl)c[nH]1 [Example 214, 4-(2-Chloro-3,6-difluorobenzoyl)-N-(pyridin-3-yl)-1H-pyrrole-2-carboxamide]
IC50: 1010 nM

O=C(NC1CCNCC1)c1cc(C(=O)c2c(F)ccc(F)c2Cl)c[nH]1 [Example 215, 4-(2-Chloro-3,6-difluorobenzoyl)-N-(piperidin-4-yl)-1H-pyrrole-2-carboxamide]
IC50: 694 nM

CN1CCC(NC(=O)c2cc(C(=O)c3c(F)ccc(F)c3Cl)c[nH]2)CC1 [Example 216, 4-(2-Chloro-3,6-difluorobenzoyl)-N-(1-methylpiperidin-4-yl)-1H-pyrrole-2-carboxamide]
IC50: 636 nM

Cc1ccc(F)c(C(=O)c2c[nH]c(C(=O)Nc3cccnc3)c2)c1F [Example 217, 4-(2.6-Difluoro-3-methylbenzoyl)-N-(pyridin-3-yl)-1H-pyrrole-2-carboxamide]
IC50: 660 nM

Cc1ccc(F)c(C(=O)c2c[nH]c(C(=O)Nc3cncnc3)c2)c1F [Example 218, 4-(2,6-Difluoro-3-methylbenzoyl)-N-(pyrimidin-5-yl)-1H-pyrrole-2-carboxamide]
IC50: 779 nM

Cc1ccc(F)c(C(=O)c2c[nH]c(C(=O)NC3CCNCC3)c2)c1F [Example 219, 4-(2,6-Difluoro-3-methylbenzoyl)-N-(piperidin-4-yl)-1H-pyrrole-2-carboxamide]
IC50: 628 nM

Cc1ccc(F)c(C(=O)c2c[nH]c(C(=O)NC3CCN(C)CC3)c2)c1F [Example 220, 4-(2,6-Difluoro-3-methylbenzoyl)-N-(1-methylpiperidin-4-yl)-1H-pyrrole-2-carboxamide]
IC50: 399 nM

O=C(Nc1cccnc1)c1cc(C(=O)c2c(Cl)ccc(F)c2F)c[nH]1 [Example 221, 4-(6-Chloro-2,3-difluorobenzoyl)-N-(pyridin-3-yl)-1H-pyrrole-2-carboxamide]
IC50: 713 nM

O=C(Nc1cncnc1)c1cc(C(=O)c2c(Cl)ccc(F)c2F)c[nH]1 [Example 222, 4-(6-Chloro-2,3-difluorobenzoyl)-N-(pyrimidin-5-yl)-1H-pyrrole-2-carboxamide]
IC50: 554 nM

CN1CCC(NC(=O)c2cc(C(=O)c3c(Cl)ccc(F)c3F)c[nH]2)CC1 [Example 223, 4-(6-Chloro-2,3-difluorobenzoyl)-N-(1-methylpiperidin-4-yl)-1H-pyrrole-2-carboxamide]
IC50: 200 nM

O=C(NC1CCNCC1)c1cc(C(=O)c2c(Cl)ccc(F)c2F)c[nH]1 [Example 224, 4-(6-Chloro-2,3-difluorobenzoyl)-N-(piperidin-4-yl)-1H-pyrrole-2-carboxamide]
IC50: 155 nM

O=C(NC1CCNCC1)c1cc(C(=O)c2cc(F)ccc2F)c[nH]1 [Example 226, 4-(2,5-Difluorobenzoyl)-N-(piperidin-4-yl)-1H-pyrrole-2-carboxamide]
IC50: 8560 nM

CN1CCC(NC(=O)c2cc(C(=O)c3cc(F)ccc3F)c[nH]2)CC1 [Example 227, 4-(2,5-Difluorobenzoyl)-N-(1-methylpiperidin-4-yl)-1H-pyrrole-2-carboxamide]
IC50: 6160 nM

O=C(Nc1cccnc1)c1cc(C(=O)c2cc(Cl)ccc2F)c[nH]1 [Example 228, 4-(5-Chloro-2-fluorobenzoyl)-N-(pyridin-3-yl)-1H-pyrrole-2-carboxamide]
IC50: 2380 nM

O=C(Nc1cncnc1)c1cc(C(=O)c2cc(Cl)ccc2F)c[nH]1 [Example 229, 4-(5-Chloro-2-fluorobenzoyl)-N-(pyrimidin-5-yl)-1H-pyrrole-2-carboxamide]
IC50: 2060 nM

O=C(NC1CCNCC1)c1cc(C(=O)c2cc(Cl)ccc2F)c[nH]1 [Example 230, 4-(5-Chloro-2-fluorobenzoyl)-N-(piperidin-4-yl)-1H-pyrrole-2-carboxamide]
IC50: 1660 nM

CN1CCC(NC(=O)c2cc(C(=O)c3cc(Cl)ccc3F)c[nH]2)CC1 [Example 231, 4-(5-Chloro-2-fluorobenzoyl)-N-(1-methylpiperidin-4-yl)-1H-pyrrole-2-carboxamide]
IC50: 1940 nM

Cc1ccc(F)c(C(=O)c2c[nH]c(C(=O)Nc3cccnc3)c2)c1 [Example 232, 4-(2-Fluoro-5-methylbenzoyl)-N-(pyridin-3-yl)-1H-pyrrole-2-carboxamide]
IC50: 4050 nM

Cc1ccc(F)c(C(=O)c2c[nH]c(C(=O)Nc3cncnc3)c2)c1 [Example 233, 4-(2-Fluoro-5-methylbenzoyl)-N-(pyrimidin-5-yl)-1H-pyrrole-2-carboxamide]
IC50: 5210 nM

Cc1ccc(F)c(C(=O)c2c[nH]c(C(=O)NC3CCN(C)CC3)c2)c1 [Example 234, 4-(2-Fluoro-5-methylbenzoyl)-N-(1-methylpiperidin-4-yl)-1H-pyrrole-2-carboxamide]
IC50: 4370 nM

O=C(Nc1cnn(CCO)c1)c1cc(C(=O)c2c(Cl)ccc(Cl)c2F)c[nH]1 [Example 235, 4-(3,6-Dichloro-2-fluorobenzo)-N-(1-(2-hydroxyethyl)-1H-pyrazol-4-yl)-1H-pyrrole-2-carboxamide]
IC50: 61.2 nM

O=C(Nc1cnn(C2CCOCC2)c1)c1cc(C(=O)c2c(Cl)ccc(Cl)c2F)c[nH]1 [Example 237, 4-(3,6-Dichloro-2-fluorobenzoyl)-N-(1-(tetrahydro-2H-pyran-4-yl)-1H-pyrazol-4-yl)-1H-pyrrole-2-carboxamide]
IC50: 148 nM

CS(=O)(=O)CCn1cc(NC(=O)c2cc(C(=O)c3c(Cl)ccc(Cl)c3F)c[nH]2)cn1 [Example 238, 4-(3,6-Dichloro-2-fluorobenzoyl)-N-(1-(2-(methylsulfonyl)ethyl)-1H-pyrazol-4-yl)-1H-pyrrole-2-carboxamide]
IC50: 119 nM

O=C(Nc1cnn(C2COC2)c1)c1cc(C(=O)c2c(Cl)ccc(Cl)c2F)c[nH]1 [Example 239, 4-(3,6-Dichloro-2-fluorobenzoyl)-N-(1-(oxetan-3-yl)-1H-pyrazol-4-yl)-1H-pyrrole-2-carboxamide]
IC50: 86.6 nM

O=C(Nc1cnn(C2CCOC2)c1)c1cc(C(=O)c2c(Cl)ccc(Cl)c2F)c[nH]1 (centres unmarked) [Example 240, 4-(3,6-Dichloro-2-fluorobenzoyl)-N-(1-(tetrahydrofuran-3-yl)-1H-pyrazol-4-yl)-1H-pyrrole-2-carboxamide]
IC50: 127 nM

O=C(Nc1cnc(CN2CCOCC2)nc1)c1cc(C(=O)c2c(Cl)ccc(Cl)c2F)c[nH]1 [Example 242, 4-(3,6-Dichloro-2-fluorobenzoyl)-N-(2-(morpholinomethyl)pyrimidin-5-yl)-1H-pyrrole-2-carboxamide]
IC50: 53 nM

COc1ccc(Cl)c(C(=O)c2c[nH]c(C(=O)Nc3cnc(CN4CCOCC4)nc3)c2)c1F [Example 243, 4-(6-Chloro-2-fluoro-3-methoxybenzoyl)-N-(2-(morpholinomethyl)pyrimidin-5-yl)-1H-pyrrole-2-carboxomide]
IC50: 129 nM

COc1ccc(Cl)c(C(=O)c2c[nH]c(C(=O)Nc3cnc(CC4CCN(C)CC4)nc3)c2)c1F [Example 247, 4-(6-Chloro-2-fluoro-3-methoxybenzoyl)-N-(2-((1-methylpiperidin-4-yl)methyl)pyrimidin-5-yl)-1H-pyrrole-2-carboxamide]
IC50: 18.1 nM

COc1ccc(Cl)c(C(=O)c2c[nH]c(C(=O)Nc3ccc(CN4CCNCC4)nc3)c2)c1F [Example 251, 4-(6-Chloro-2-fluoro-3-methoxybenzoyl)-N-(6-(piperazin-1-ylmethyl)pyridin-3-yl)-1H-pyrrole-2-carboxamtde]
IC50: 7.9 nM

O=C(Nc1cccnc1)c1cc(C(=O)c2c(Cl)ccc(O)c2F)c[nH]1 [Example 254, 4-(6-Chloro-2-fluoro-3-hydroxybenzoyl)-N-(pyridin-3-yl)-1H-pyrrole-2-carboxamide]
IC50: 1190 nM

Cn1cc(NC(=O)c2cc(C(=O)c3c(Cl)ccc(O)c3F)c[nH]2)cn1 [Example 255, 4-(6-Chloro-2-fluoro-3-hydroxybenzoyl)-N-(1-methyl-1H-pyrazol-4-yl)-1H-pyrrole-2-carboxamide]
IC50: 736 nM

CCOc1ccc(Cl)c(C(=O)c2c[nH]c(C(=O)Nc3cccnc3)c2)c1F [Example 256, 4-(6-Chloro-3-ethoxy-2-fluorobenzoyl)-N-(pyridin-3-yl)-1H-pyrrole-2-carboxamide]
IC50: 116 nM

CCOc1ccc(Cl)c(C(=O)c2c[nH]c(C(=O)Nc3cnn(C)c3)c2)c1F [Example 257, 4-(6-Chloro-3-ethoxy-2-fluorobenzoyl)-N-(1-methyl-1H-pyrazol-yl)-1H-pyrrole-2-carboxamide]
IC50: 203 nM
